According to patent US9254251B2, “Benzoic acid amide compound” (AMOREPACIFIC CORPORATION, priority 2011, dated 2016):

Columns and labels:
[1] = test system: B16F10 melanoma cells; experiment: Effect of reducing melanin production in melanocytes (Dooley's method); assay type: cell-based; details: B16-F10, 120 h; Mouse-derived B16F10 melanoma cells; melanin extracted after 5 days, absorbance at 405 nm; read-out: IC50 (concentration required to reduce melanin production in melanocytes to half)
Description: The effect of reducing melanin production of the benzamide derivative compounds prepared in Examples in melanocytes was measured according to the Dooley's method. Mouse-derived B16F10 melanoma cells acquired from the Korean Cell Line Bank were used. DMEM (Cat No. 11995), FBS (Cat No. 16000-044), and antibiotic and antifungal agents (Cat No. 15240-062) necessary for cell culturing were purchased from Invitrogen (GIBCO). The cells were cultured under the condition of 37° C. and 5% CO2. The cultured B16F10 cells were detached using 0.05% trypsin-EDTA and seeded onto a 48-well plate with the same cell number (1×10^4 cells/well). From the next day, the culture medium was replaced with one containing 10 ppm of the compound of Examples for three consecutive days. Kojic acid and rucinol were used as positive control. After 5 days, melanin was extracted from the cells by treating with 1 N NaOH at 60° C. for 2 hours, which was quantitated by measuring absorbance at 405 nm.

[2] = molecular target: mushroom tyrosinase; experiment: Effect of inhibiting mushroom tyrosinase activity (method of Vanni, et al.); assay type: biochemical; details: read-out: IC50 (concentration required to inhibit tyrosinase activity to 50%); mushroom tyrosinase 10 units, tyrosine substrate, 37° C. for 10 minutes, pH 6.8, absorbance at 480 nm
Description: The effect of inhibiting mushroom tyrosinase activity of the benzamide derivative compounds of Examples was measured according to the method of Vanni, et al. Specifically, 49.5 μL of 0.1 M potassium phosphate buffer (pH 6.8), 45 μL of distilled water (DW), 0.5 μL (10 units) of mushroom tyrosinase (SIGMAT-7755) and 5 μL of the benzamide derivative compound of Examples were mixed and reacted at 37° C. for 10 minutes by mixing with 50 μL of 0.3 mg/mL tyrosine aqueous solution in a 96-well plate (total volume: 150 μL).

Structure (SMILES)	IC50 [1] [µM]	IC50 [2] [µM]
O=C(NCCc1ccc(O)c(O)c1)c1cc(C23CC4CC(CC(C4)C2)C3)c(O)cc1O [Example 1, 5-adamantan-1-yl-N-[2-(3,4-dihydroxyphenyl)-ethyl]-2,4-dihydroxybenzamide]	1.2	–
O=C(NCCc1ccc(O)cc1)c1cc(C23CC4CC(CC(C4)C2)C3)c(O)cc1O [Example 5, 5-adamantan-1-yl-2,4-dihydroxy-N-[2-(4-hydroxyphenyl)-ethyl]benzamide]	1.1	–
O=C(NCc1ccc(O)cc1O)c1cc(C23CC4CC(CC(C4)C2)C3)c(O)cc1O [Example 8, 5-adamantan-1-yl-N-(2,4-dihydroxybenzyl)-2,4-dihydroxybenzamide]	1.2	1.1
COc1cc(O)c(C(=O)NCc2ccc(O)cc2O)cc1C12CC3CC(CC(C3)C1)C2 [Example 9, 5-adamantan-1-yl-N-(2,4-dihydroxybenzyl)-2-hydroxy-4-methoxybenzamide]	1.8	0.8
COc1cc(OC)c(C23CC4CC(CC(C4)C2)C3)cc1C(=O)NCc1ccc(O)cc1O [Example 10, 5-adamantan-1-yl-N-(2,4-dihydroxybenzyl)-2,4-dimethoxybenzamide]	1.1	0.9
COc1ccc(C(=O)NCc2ccc(O)c(O)c2)cc1C12CC3CC(CC(C3)C1)C2 [Example 12, 3-adamantan-1-yl-N-(3,4-dihydroxybenzyl)-4-methoxybenzamide]	1.9	–
O=C(NCCc1ccc(O)c(O)c1)c1ccc(O)c(C23CC4CC(CC(C4)C2)C3)c1 [Example 13, 3-adamantan-1-yl-N-[2-(3,4-dihydroxyphenyl)-ethyl]-4-hydroxybenzamide]	3	–
O=C(NCc1ccc(O)cc1O)c1ccc(O)c(C23CC4CC(CC(C4)C2)C3)c1 [Example 17, 3-adamantan-1-yl-N-(2,4-dihydroxybenzyl)-4-hydroxybenzamide]	–	0.9
COc1ccc(C(=O)NCc2ccc(O)cc2O)cc1C12CC3CC(CC(C3)C1)C2 [Example 18, 3-adamantan-1-yl-N-(2,4-dihydroxybenzyl)-4-methoxybenzamide]	–	1.4
O=C(NCc1cc(O)ccc1O)c1cc(C23CC4CC(CC(C4)C2)C3)c(O)cc1O [Example 20, 5-adamantan-1-yl-N-(2,5-dihydroxybenzyl)-2,4-dihydroxybenzamide]	2.9	–
COc1cc(CNC(=O)c2cc(C34CC5CC(CC(C5)C3)C4)c(O)cc2O)cc(OC)c1 [Example 21, 5-adamantan-1-yl-N-(3,5-dimethoxybenzyl)-2,4-dihydroxybenzamide]	2	–
O=c1cc(CO)occ1O [Kojic acid, reference compound]	300	–
CCCCc1ccc(O)cc1O [Rucinol, reference compound]	10	1.3
